According to the CheMixHub viscosity set:

Experiment: xn = mol fraction of the nth substance listed

OC1CCCCCC1 + OCCO
viscosity [mPa·s], 100 kPa
Conditions | 293.15 K | 298.15 K | 303.15 K | 308.15 K | 313.15 K | 318.15 K
x1 = 0.0095 | 20.34 | 16.92 | 13.81 | 11.37 | 9.587 | 7.9
x1 = 0.0395 | 20.45 | 16.98 | 13.85 | 11.42 | 9.625 | 7.92
x1 = 0.0578 | 20.52 | 17.02 | 13.9 | 11.44 | 9.638 | 7.931
x1 = 0.0878 | 20.65 | 17.12 | 13.95 | 11.49 | 9.678 | 7.957
x1 = 0.1 | 20.71 | 17.16 | 13.98 | 11.51 | 9.694 | 7.972
x1 = 0.1961 | 21.18 | 17.53 | 14.22 | 11.7 | 9.819 | 8.064
x1 = 0.305 | 21.95 | 18.16 | 14.85 | 12.27 | 10.25 | 8.379
x1 = 0.3969 | 22.89 | 19.04 | 15.54 | 12.83 | 10.68 | 8.723
x1 = 0.4993 | 24.41 | 20.37 | 16.58 | 13.61 | 11.32 | 9.271
x1 = 0.5877 | 26.32 | 21.93 | 17.76 | 14.49 | 12.06 | 9.883
x1 = 0.6993 | 29.93 | 24.59 | 19.71 | 15.94 | 13.24 | 10.77
x1 = 0.7996 | 34.97 | 28.03 | 22.14 | 17.65 | 14.57 | 11.68
x1 = 0.8977 | 45.8 | 36.3 | 28.9 | 22.7 | 19 | 15.7

O=C(O)C(Cl)(Cl)Cl + Oc1ccccc1
323.15 K, 101 kPa
Conditions | viscosity [mPa·s]
x2 = 0.1005 | 5.083
x2 = 0.1834 | 5.115
x2 = 0.245 | 5.126
x2 = 0.3305 | 5.085
x2 = 0.4032 | 5.012
x2 = 0.5025 | 4.779
x2 = 0.5925 | 4.683
x2 = 0.6928 | 4.342
x2 = 0.76 | 4.127
x2 = 0.8544 | 3.811
x2 = 0.9117 | 3.569
